# Earlier results as cited in patent US4658014A, “Synthetic peptides with calcitonin-like activity” (priority 1985, dated 1987).
# Settings: versus natural eel calcitonin
substance,measurement,value
"[Asu^1,7 ] eel calcitonin",activity relative to the naturally occuring hormone with the disulfide bond,comparable activity
